The text below walks through data of US20100292205A1, “Pyrimidone Compounds As GSK-3 Inhibitors” (PFIZER INC., priority 2006, published 2010).

This test concerns the target T1, Recombinant human GSK3β (Homo sapiens, UniProt P49841).
T1 construct: His-tag; made in house; host or cells: Sf9 insect cells / baculovirus
Description: GSK-3β (Glycogen Synthase Kinase) cell free enzyme assay. Type of test: biochemical. To be noted: for inhibition at 1 µM: read-out: Percent inhibition at 1 μM; for IC50: cell free enzyme assay. Put shortly: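 This cell-free kinase assay measured [33P] transfer from [33P]ATP gamma phosphate into the biotinylated peptide bio-LC-S-R-H-S-S-P-H-Q-pS-E-D-E-E-E-OH. After 60 min at RT, reactions were stopped with 0.66 volume of PBS lacking Ca or Mg containing 12.5 mM EDTA, 0.25% Triton-X 100, 125 uM ATP and 6.2 mg/ml streptavidin SPA beads. Bead-bound radioactivity was counted as CPM on a Trilux scintillation counter.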

Where two headings read alike, the source gives them in different places.

T1 sequence (P49841 whole entry): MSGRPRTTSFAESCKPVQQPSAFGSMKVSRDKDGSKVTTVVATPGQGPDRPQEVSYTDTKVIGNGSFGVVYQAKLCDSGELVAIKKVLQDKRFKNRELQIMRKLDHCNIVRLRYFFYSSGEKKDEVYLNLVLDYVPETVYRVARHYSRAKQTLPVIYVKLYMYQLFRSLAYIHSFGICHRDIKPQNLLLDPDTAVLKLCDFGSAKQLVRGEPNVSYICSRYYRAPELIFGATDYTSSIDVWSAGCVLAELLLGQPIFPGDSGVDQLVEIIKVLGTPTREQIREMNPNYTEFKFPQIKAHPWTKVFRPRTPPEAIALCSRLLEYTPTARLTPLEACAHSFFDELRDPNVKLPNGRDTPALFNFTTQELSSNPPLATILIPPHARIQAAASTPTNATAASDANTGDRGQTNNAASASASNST

What is called inhibition is how much of the control response was suppressed. Take `COC(=O)N1C[C@H](F)[C@H](Nc2nc(-c3ccncc3)cc(=O)n2C)C1` [Example 211, Methyl (3S,4R)-3-fluoro-4-[(1-methyl-6-oxo-4-pyridin-4-yl-16-dihydropyrimidin-2-yl)amino]pyrrolidine-1-carboxylate]: the inhibition at 1 µM (Examples 201-221) turned out to be 67%.
A word on the IC50: it is the concentration needed to halve the response being measured. In the case of `CN(c1nc(-c2ccncc2F)cc(=O)n1C)[C@H]1[C@@H]2CN(C(=O)CC(F)(F)F)C[C@@H]21` [Example 97, 6-(3-Fluoropyridin-4-yl)-3-methyl-2-{methyl[(1R,5S,6s)-3-(3,3,3-trifluoropropanoyl)-3-azabicyclo[3.1.0]hex-6-yl]amino}pyrimidin-4(3H)-one], where the note is “Examples 62-155”, the concentration for half-maximal inhibition (IC50) was determined as 55.4 nM.
Regarding `CN(c1nc(-c2ccncc2)cc(=O)n1C)C1CCCN(Cc2ccccc2)CC1` (centres unmarked) [Example 255, 2-[(1-Benzylazepan-4-yl)(methyl)amino]-3-methyl-6-pyridin-4-ylpyrimidin-4(3H)-one], where the note is “Examples 236-262”, the inhibition at 1 µM came to 76%.
Take `Cn1c(N2CCc3ccccc3C2Cc2ccccc2)nc(-c2ccncc2)cc1=O` (centres unmarked) [Example 22, 2-(1-Benzyl-3,4-dihydroisoquinolin-2(1H)-yl)-3-methyl-6-pyridin-4-ylpyrimidin-4(3H)-one]: under “Examples 1-35”, the IC50 was determined as 37 nM.
On the same count and under the same terms, the result for `CN(c1nc(-c2ccncc2)cc(=O)n1C)[C@H]1CC[C@H]2NCC[C@@]2(C)C1` [Example 23, 3-methyl-2-{Methyl[(3aS,5S,7aR)-3a-methyloctahydro-1H-indol-5-yl]amino}-6-pyridin-4-ylpyrimidin-4(3H)-one] reads 47 nM.
For `CN(c1nc(-c2ccncc2F)cc(=O)n1C)[C@H]1[C@@H]2CN(C(=O)c3ccnc(Cl)c3)C[C@@H]21` [Example 112, 2-{[(1R,5S,6s)-3-(2-Chloroisonicotinoyl)-3-azabicyclo[3.1.0]hex-6-yl](methyl)amino}-6-(3-fluoropyridin-4-yl)-3-methylpyrimidin-4(3H)-one], the IC50 (Examples 62-155) was determined as 2.63 nM.
Same read-out and setting: the result for `CCN(C[C@H]1CCCN1C(=O)Cc1ccccc1)c1nc(-c2ccncc2)cc(=O)n1C` [Example 94, 2-(Ethyl{[(2R)-1-(phenylacetyl)pyrrolidin-2-yl]methyl}amino)-3-methyl-6-pyridin-4-ylpyrimidin-4(3H)-one] reads 18.2 nM.
Consider `Cn1c(NC2CN(S(=O)(=O)c3ccccc3)C2)nc(-c2ccncc2)cc1=O` [Example 171, 3-Methyl-2-{[1-(phenylsulfonyl)azetidin-3-yl]amino}-6-pyridin-4-ylpyrimidin-4(3H)-one], for which the inhibition at 1 µM (Examples 157-199) is 61%.
In the case of `COC(=O)N1CCC(N(C)c2nc(-c3ccncc3)cc(=O)n2C)C1` (centres unmarked) [Example 213, Methyl 3-[methyl(1-methyl-6-oxo-4-pyridin-4-yl-16-dihydropyrimidin-2-yl)amino]pyrrolidine-1-carboxylate], the inhibition at 1 µM (Examples 201-221) worked out at 95%.
Consider `CC(C)CC(=O)N1C[C@@H]2[C@H](C1)[C@H]2N(C)c1nc(-c2ccncc2F)cc(=O)n1C` [Example 110, 6-(3-Fluoropyridin-4-yl)-3-methyl-2-{methyl[(1R,5S,6s)-3-(3-methylbutanoyl)-3-azabicyclo[3.1.0]hex-6-yl]amino}pyrimidin-4(3H)-one], for which the half-maximal inhibitory concentration (IC50) (Examples 62-155) was found to be 18.3 nM.
Turning to `Cn1c(NC2CCCN(C(=O)Cc3ccccc3)C2)nc(-c2ccncc2)cc1=O` (centres unmarked) [Example 86, 3-Methyl-2-{[1-(phenylacetyl)piperidin-3-yl]amino}-6-pyridin-4-ylpyrimidin-4(3H)-one], the IC50 (Examples 62-155) was 136 nM.
As for `CCN(c1nc(-c2ccncc2)cc(=O)n1C)C1CCN(C(=O)c2ccccc2)C1` (centres unmarked) [Example 69, 2-[(1-Benzoylpyrrolidin-3-yl)(ethyl)amino]-3-methyl-6-pyridin-4-ylpyrimidin-4(3H)-one], the 50% inhibitory concentration (IC50) (Examples 62-155) is 96.1 nM.
For the compound `COC(=O)CCCC(=O)N1C[C@@H]2[C@H](C1)[C@H]2N(C)c1nc(-c2ccncc2F)cc(=O)n1C` [Example 143, Methyl 5-[(1R,5S,6s)-6-{[4-(3-fluoropyridin-4-yl)-1-methyl-6-oxo-1,6-dihydropyrimidin-2-yl](methyl)amino}-3-azabicyclo[3.1.0]hex-3-yl]-5-oxopentanoate], the half-maximal inhibitory concentration (IC50) (Examples 62-155) was determined as 57.4 nM.
Same read-out and setting: the result for `CN(c1nc(-c2ccncc2F)cc(=O)n1C)[C@H]1[C@@H]2CN(C(=O)c3ccccc3C(F)(F)F)C[C@@H]21` [Example 98, 6-(3-Fluoropyridin-4-yl)-3-methyl-2-(methyl{(1R,5S,6s)-3-[2-(trifluoromethyl)benzoyl]-3-azabicyclo[3.1.0]hex-6-yl}amino)pyrimidin-4(3H)-one] reads 4.39 nM.
